Data: ChEMBL document CHEMBL1150412, “1,5-Diphenylpyrrole derivatives as antimycobacterial agents. Probing the influence on antimycobacterial activity of lipophilic substituents at the phenyl rings” (J Med Chem, 2008)
≈ marks a conversion by molar mass, not a printed value.

Legend:
[1] = test system: Mycobacterium tuberculosis; test: Antimycobacterial activity against rifampicin-resistant Mycobacterium tuberculosis; format: functional
[2] = test system: Mycobacterium tuberculosis; test: Antimycobacterial activity against isoniazid-resistant Mycobacterium tuberculosis; format: functional

Row | Compound | MIC [1] | MIC [2]
1 | CO[C@H]1/C=C/O[C@@]2(C)Oc3c(C)c(O)c4c(O)c(c(/C=N/N5CCN(C)CC5)c(O)c4c3C2=O)NC(=O)/C(C)=C\C=C\[C@H](C)[C@H](O)[C@@H](C)[C@@H](O)[C@@H](C)[C@H](OC(C)=O)[C@@H]1C [RIFAMPIN] | > 64 µg/mL | 0.25 µg/mL (≈ 0.304 µM)
2 | CCc1ccc(-n2c(-c3ccc(Cl)cc3)cc(CN3CCSCC3)c2C)cc1 | 0.5 µg/mL (≈ 1.22 µM) | 16 µg/mL (≈ 38.9 µM)
3 | Cc1c(CN2CCN(C)CC2)cc(-c2ccc(Cl)cc2)n1-c1ccc(Cl)cc1 | 1 µg/mL (≈ 2.41 µM) | 2 µg/mL (≈ 4.83 µM)
4 | [H]/N=C(/N)N[C@H]1[C@H](O)[C@@H](O)[C@H](O[C@@H]2O[C@@H](C)[C@](O)(C=O)[C@H]2O[C@@H]2O[C@@H](CO)[C@H](O)[C@@H](O)[C@@H]2NC)[C@@H](N/C(N)=N\[H])[C@@H]1O (stereo in doubt) [STREPTOMYCIN] | 4 µg/mL (≈ 6.88 µM) | 16 µg/mL (≈ 27.5 µM)
5 | Cc1ccc(-c2cc(CN3CCSCC3)c(C)n2-c2ccc(F)cc2)cc1 | 0.5 µg/mL (≈ 1.31 µM) | 32 µg/mL (≈ 84.1 µM)
6 | Cc1ccc(-c2cc(CN3CCSCC3)c(C)n2-c2ccc(Cl)cc2)cc1 | 0.5 µg/mL (≈ 1.26 µM) | 16 µg/mL (≈ 40.3 µM)
7 | CCCc1ccc(-c2cc(CN3CCSCC3)c(C)n2-c2ccc(Cl)cc2)cc1 | 0.125 µg/mL (≈ 0.294 µM) | > 16 µg/mL
8 | Cc1c(CN2CCSCC2)cc(-c2ccc(Cl)cc2)n1-c1ccc(C(C)C)cc1 | 0.25 µg/mL (≈ 0.588 µM) | > 16 µg/mL
9 | Cc1ccc(-n2c(-c3ccc(Cl)cc3)cc(CN3CCSCC3)c2C)cc1 | 0.5 µg/mL (≈ 1.26 µM) | > 16 µg/mL
10 | NNC(=O)c1ccncc1 [ISONIAZID] | 0.25 µg/mL (≈ 1.82 µM) | > 16 µg/mL
11 | CCc1ccc(-c2cc(CN3CCSCC3)c(C)n2-c2ccc(Cl)cc2)cc1 | 0.25 µg/mL (≈ 0.608 µM) | 16 µg/mL (≈ 38.9 µM)
12 | Cc1c(CN2CCSCC2)cc(-c2ccc(C(C)C)cc2)n1-c1ccc(F)cc1 | 0.25 µg/mL (≈ 0.612 µM) | > 16 µg/mL
13 | CCCc1ccc(-n2c(-c3ccc(Cl)cc3)cc(CN3CCSCC3)c2C)cc1 | 0.25 µg/mL (≈ 0.588 µM) | > 16 µg/mL
14 | Cc1c(CN2CCSCC2)cc(-c2ccc(C(C)C)cc2)n1-c1ccc(Cl)cc1 | 0.125 µg/mL (≈ 0.294 µM) | 8 µg/mL (≈ 18.8 µM)
